Measured values: the supplement of paper PMC10307832

How the values were obtained:
Test in all cases: relative viability (nuclei count vs DMSO), 5 days (fraction); higher = more cells survive
[1] = compound: C1/C(=C\C2=CC=CS2)/C(=O)/C(=C/C3=CC=CS3)/C1 + Cc1cc(Nc2cc(N3CCN(C)CC3)nc(Sc3ccc(NC(=O)C4CC4)cc3)n2)n[nH]1 [Tozasertib] (partner 0.1 µM)
Procedure, shortened: (§1)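 Relative viability was taken as the ratio of nuclei in treated wells to nuclei in vehicle wells. Lung cancer cell lines in 1536-well plates received compounds by pin tool one day after seeding, either one drug alone or a fixed anchor-drug dose plus five library-drug doses (not always all listed) in √10 steps. Nuclei were counted on 4× images after 5 days of treatment, and values are medians of duplicate plates.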

TPCA-1 + Luminespib = compound: C1=CC(=CC=C1C2=CC(=C(S2)NC(=O)N)C(=O)N)F [TPCA-1] + CCNC(=O)c1noc(-c2cc(C(C)C)c(O)cc2O)c1-c1ccc(CN2CCOCC2)cc1 [Luminespib] (partner 0.01 µM)
Procedure, shortened: as §1

TPCA-1 + Tozasertib = compound: C1=CC(=CC=C1C2=CC(=C(S2)NC(=O)N)C(=O)N)F [TPCA-1] + Cc1cc(Nc2cc(N3CCN(C)CC3)nc(Sc3ccc(NC(=O)C4CC4)cc3)n2)n[nH]1 [Tozasertib] (partner 0.1 µM)
Procedure, shortened: as §1

Lestaurtinib + AZD7762 = compound: C[C@]12O[C@H](C[C@]1(O)CO)n1c3ccccc3c3c4c(c5c6ccccc6n2c5c31)CNC4=O [Lestaurtinib] + NC(=O)Nc1cc(-c2cccc(F)c2)sc1C(=O)N[C@H]1CCCNC1 [AZD7762] (partner 0.2 µM)
Procedure, shortened: as §1

Cell Line | relative viability ([1]; first compound 0.2 µM) | relative viability ([1]; first compound 0.6325 µM) | relative viability ([1]; first compound 2 µM) | relative viability ([1]; first compound 6.325 µM) | relative viability ([1]; first compound 20 µM) | relative viability (TPCA-1 + Luminespib; first compound 0.04 µM) | relative viability (TPCA-1 + Luminespib; first compound 0.1265 µM) | relative viability (TPCA-1 + Luminespib; first compound 0.4 µM) | relative viability (TPCA-1 + Luminespib; first compound 1.265 µM) | relative viability (TPCA-1 + Luminespib; first compound 4 µM) | relative viability (TPCA-1 + Tozasertib; first compound 0.04 µM) | relative viability (TPCA-1 + Tozasertib; first compound 0.1265 µM) | relative viability (TPCA-1 + Tozasertib; first compound 0.4 µM) | relative viability (TPCA-1 + Tozasertib; first compound 1.265 µM) | relative viability (TPCA-1 + Tozasertib; first compound 4 µM) | relative viability (Lestaurtinib + AZD7762; first compound 0.005 µM) | relative viability (Lestaurtinib + AZD7762; first compound 0.01581 µM) | relative viability (Lestaurtinib + AZD7762; first compound 0.05 µM) | relative viability (Lestaurtinib + AZD7762; first compound 0.1581 µM) | relative viability (Lestaurtinib + AZD7762; first compound 0.5 µM)
NCI-H1355 | 0.565 | 0.577 | 0.603 | 0.562 | 0.48 | 0.788 | 0.747 | 0.841 | 0.715 | 0.465 | 0.595 | 0.574 | 0.597 | 0.461 | 0.254 | 0.839 | 0.815 | 0.574 | 0.54 | 0.422
EKVX | 0.405 | 0.452 | 0.329 | 0.424 | 0.394 | 0.885 | 0.845 | 0.933 | 0.756 | 0.809 | 0.387 | 0.332 | 0.428 | 0.354 | 0.284 | 0.718 |  | 0.643 | 0.755 | 0.546
NCI-H441 | 0.657 | 0.614 | 0.613 | 0.631 | 0.528 | 0.448 | 0.414 | 0.386 | 0.297 | 0.19 | 0.946 | 0.632 | 0.506 | 0.379 | 0.28 | 1.17 | 1.39 | 1.04 | 1.01 | 0.743
NCI-H1975 | 0.71 | 0.742 |  | 0.678 | 0.699 | 0.577 | 0.275 | 0.2 | 0.199 | 0.129 | 0.796 | 0.697 | 0.737 | 0.407 | 0.312 | 0.806 | 0.86 | 0.693 | 0.745 | 0.511
HCC-78 | 0.423 | 0.593 | 0.45 | 0.37 | 0.454 |  |  |  |  |  | 0.406 | 0.413 | 0.427 | 0.477 | 0.205 | 0.555 | 0.662 | 0.517 | 0.516 | 0.333
NCI-H2085 | 0.867 | 0.898 | 0.792 | 0.799 | 0.718 | 0.427 | 0.408 | 0.574 | 0.473 | 0.45 | 0.863 | 0.72 | 0.746 | 0.735 | 0.479 | 0.917 | 0.938 | 0.941 | 0.98 | 0.827
H3255 | 0.714 | 0.617 | 0.566 | 0.537 | 0.546 | 0.696 | 0.893 | 0.836 | 0.822 | 0.622 | 0.612 | 0.6 | 0.623 | 0.58 | 1.03 | 0.961 | 0.945 | 0.866 | 0.879 | 0.543
NCI-H2087 | 0.404 | 0.257 | 0.257 | 0.201 | 0.225 | 0.171 | 0.176 | 0.156 | 0.15 | 0.141 | 0.243 | 0.239 | 0.28 | 0.2 | 0.116 | 1.27 | 1.2 | 1.06 | 0.761 | 0.302
LC-2-ad | 0.452 | 0.461 | 0.448 | 0.429 | 0.429 | 1.13 | 1.01 | 0.826 | 0.908 | 0.663 | 0.514 | 0.41 | 0.469 | 0.459 | 0.315 | 0.892 | 0.908 | 0.558 | 0.409 | 0.225
PC-3 [JPC-3] | 0.924 | 0.843 | 0.824 | 0.746 | 0.896 | 0.5 | 0.639 | 0.682 | 0.675 | 0.569 | 0.869 | 0.874 | 0.892 | 0.848 | 0.545 | 0.759 | 1.04 | 0.688 | 0.586 | 0.485
HCC-15 | 0.422 | 0.497 | 0.367 | 0.397 | 0.357 | 0.458 | 0.326 | 0.341 | 0.366 | 0.374 | 0.413 | 0.438 | 0.338 | 0.276 | 0.15 | 1.25 | 1.36 | 0.937 | 1.18 | 0.188
NCI-H1563 |  |  |  |  |  | 0.522 | 0.601 | 0.521 | 0.532 | 0.451 |  |  |  |  |  |  |  |  |  | 
COR-L 105 | 0.337 | 0.33 | 0.316 |  | 0.407 | 0.782 | 0.658 | 0.766 | 0.738 | 0.648 | 0.398 | 0.355 | 0.309 | 0.349 | 0.335 |  |  |  |  | 
NCI-H520 | 0.531 | 0.506 | 0.458 | 0.398 | 0.406 | 0.197 | 0.215 | 0.203 | 0.246 | 0.213 | 0.445 | 0.395 | 0.448 | 0.498 | 0.319 |  |  |  |  | 
LU99A | 0.287 | 0.284 | 0.266 | 0.267 | 0.301 | 0.34 | 0.302 | 0.241 | 0.349 | 0.231 | 0.276 | 0.276 | 0.226 | 0.242 | 0.199 | 0.362 | 0.348 | 0.34 | 0.277 | 0.158
NCI-H1666 | 0.574 | 0.658 | 0.609 | 0.538 | 0.538 | 1.03 | 0.99 | 1.08 | 1.04 | 1.05 | 0.627 | 0.598 | 0.635 | 0.543 | 0.461 | 0.753 | 0.903 | 0.933 | 1.01 | 0.654
NCI-H2170 | 0.689 | 0.716 | 0.73 | 0.563 | 0.728 | 0.968 | 0.703 | 0.535 | 0.681 | 0.277 | 0.731 | 0.644 | 0.718 | 0.66 | 0.387 | 0.847 | 0.784 | 0.655 | 0.83 | 0.241
